Data on 24 compounds can be found in patent US9422311B2, “Compounds for the treatment of hepatitis C” (priority 2012, dated 2016).

The subject of the test is HCV pseudoparticles, genotype 1a (H77C) E1 and E2 envelope. Description: HCV pseudoparticle infection assay (luciferase, Huh7 cells). It counts as cell-based, hepatitis C virus (HCV) genotype 1a. The settings on record: Hepatitis C virus, Huh-7, 48 h, read-out: EC50 (nM) 1a (H77C), HCV pseudoparticles genotype 1a (H77C), Huh7 cells, luciferase 2 days after infection.

Read-outs that look alike come from different tables or passages of the source.

One may read the EC50 as the concentration at which the effect is half-maximal.

Consider `CC1(C)CNC(=O)c2ccc(cc2)Nc2nc(nc(OCC(F)(F)F)n2)NCc2ccc(c(Cl)c2)OCCCN(C(=O)C(=O)Nc2cccc(F)c2)C1` [Example 3007], for which the half-maximal effective concentration (EC50) (class symbol) is 0.1 to 100 nM. Take `CCc1nnc(NC(=O)C(=O)N2CCCOc3ccc(cc3Cl)CNc3nc(nc(OCC(F)(F)F)n3)Nc3ccc(cc3)C(=O)NCC(C)(C)C2)s1` [Example 3016]: the half-maximal effective concentration (EC50) (class symbol) fell in the range of 0.1 to 100 nM and the EC50 (numeric value) was found to be 24 nM. Take `CC1(C)CNC(=O)c2ccc(cc2)Nc2nc(nc(OCC(F)(F)F)n2)NCc2ccc(c(Cl)c2)OCCCN(C(=O)C(=O)N2CCOCC2)C1` [Example 3005]: where the note is “class symbol”, the concentration for a half-maximal effect (EC50) fell in the range of 0.1 to 100 nM. The same measure, in the same setting: then `CC(C)CNC(=O)C(=O)N1CCCOc2ccc(cc2Cl)CNc2nc(nc(OCC(F)(F)F)n2)Nc2ccc(cc2)C(=O)NCC(C)(C)C1` [Example 3014], with 0.1 to 100 nM; and `Cc1nnc(NC(=O)C(=O)N2CCCOc3ccc(cc3Cl)CNc3nc(nc(OCC(F)(F)F)n3)Nc3ccc(cc3)C(=O)NCC(C)(C)C2)s1` [Example 3020], with 0.1 to 100 nM. In the case of `C=C1COc2ccc(cc2)CNc2nc(nc(OCC(F)(F)F)n2)Nc2ccc(cc2)C(=O)NCC(C)(C)CN(C(=O)C(=O)OCC)C1` [Example 1001], the EC50 runs as follows: (class symbol) 0.1 to 100 nM; (numeric value) 0.629 nM. On to `C=C1COc2ccc(cc2)CNc2nc(nc(OCC(F)(F)F)n2)Nc2ccc(cc2)C(=O)NCC(C)(C)CN(C(=O)C(=O)Nc2ccc(F)cc2)C1` [Example 1004], for which the concentration for a half-maximal effect (EC50) (class symbol) fell in the range of 0.1 to 100 nM.

As to `CC1(C)CNC(=O)c2ccc(cc2)Nc2nc(nc(OCC(F)(F)F)n2)NCc2ccc(c(Cl)c2)OCCCN(C(=O)C(=O)N2CCCCC2)C1` [Example 3018], the EC50 (class symbol) was 0.1 to 100 nM. As to `CC1(C)CNC(=O)c2ccc(cc2)Nc2nc(nc(OCC(F)(F)F)n2)NCc2ccc(c(Cl)c2)OCCCN(C(=O)C(=O)Nc2nncs2)C1` [Example 3006], the half-maximal effective concentration (EC50) (class symbol) was in the range of 0.1 to 100 nM. Consider `C=C1COc2ccc(cc2)CNc2nc(nc(OCC(F)(F)F)n2)Nc2ccc(cc2)C(=O)NCC(C)(C)CN(C(=O)C(=O)O)C1` [Example 1002], for which the EC50 runs as follows: (class symbol) 0.1 to 100 nM; (numeric value) 5.73 nM. As to `CC1(C)CNC(=O)c2ccc(cc2)Nc2nc(nc(OCC(F)(F)F)n2)NCc2ccc(c(Cl)c2)OCCCN(C(=O)C(N)=O)C1` [Example 3002], the EC50 (class symbol) was 0.1 to 100 nM. Same read-out and setting: then `Cc1ccc(NC(=O)C(=O)N2CCCOc3ccc(cc3Cl)CNc3nc(nc(OCC(F)(F)F)n3)Nc3ccc(cc3)C(=O)NCC(C)(C)C2)cc1` [Example 3003], with 0.1 to 100 nM; and `CC1(C)CNC(=O)c2ccc(cc2)Nc2nc(nc(OCC(F)(F)F)n2)NCc2ccc(c(Cl)c2)OCCCN(C(=O)C(=O)Nc2cc(F)cc(F)c2)C1` [Example 3010], with 0.1 to 100 nM. The same measure, in the same setting: then `CC1(C)CNC(=O)c2ccc(cc2)Nc2nc(nc(OCC(F)(F)F)n2)NCc2ccc(c(Cl)c2)OCCCN(C(=O)C(=O)N2CCc3ccccc3C2)C1` [Example 3013], with 0.1 to 100 nM; and `CC1(C)CNC(=O)c2ccc(cc2)Nc2nc(nc(OCC(F)(F)F)n2)NCc2ccc(c(Cl)c2)OCCCN(C(=O)C(=O)NC2CCCCC2)C1` [Example 3012], with 0.1 to 100 nM; and `CC1(C)CNC(=O)c2ccc(nc2)Nc2cc(nc(OCC(F)(F)F)n2)NCc2ccc(cc2)OCCCN(C(=O)C(=O)Nc2ccc(C#N)cc2)C1` [Example 2004], with 0.1 to 100 nM. On the same count and under the same terms, the value for `Cc1cc(NC(=O)C(=O)N2CCCOc3ccc(cc3Cl)CNc3nc(nc(OCC(F)(F)F)n3)Nc3ccc(cc3)C(=O)NCC(C)(C)C2)no1` [Example 3017] was 0.1 to 100 nM; that for `CC1(C)CNC(=O)c2ccc(cc2)Nc2nc(nc(OCC(F)(F)F)n2)NCc2ccc(c(Cl)c2)OCCCN(C(=O)C(=O)Nc2nccs2)C1` [Example 3019] was 0.1 to 100 nM. On to `CC1(C)CNC(=O)c2ccc(nc2)Nc2cc(nc(OCC(F)(F)F)n2)NCc2ccc(cc2)OCCCN(C(=O)C(=O)Nc2ccc(Cl)c(F)c2)C1` [Example 2003], for which the EC50 (class symbol) lay within 0.1 to 100 nM and the EC50 (numeric value) stood at 0.105 nM. For `CC1(C)CNC(=O)c2ccc(cc2)Nc2nc(nc(OCC(F)(F)F)n2)NCc2ccc(c(Cl)c2)OCCCN(C(=O)C(=O)Nc2ccc(F)cc2)C1` [Example 3008], the EC50 was 0.1 to 100 nM (class symbol) and 2.42 nM (numeric value). In the case of `CN(C)C(=O)C(=O)N1CCCOc2ccc(cc2Cl)CNc2nc(nc(OCC(F)(F)F)n2)Nc2ccc(cc2)C(=O)NCC(C)(C)C1` [Example 3001], the EC50 (class symbol) lay in the range of 0.1 to 100 nM. For the compound `CNC(=O)C(=O)N1CCCOc2ccc(cc2Cl)CNc2nc(nc(OCC(F)(F)F)n2)Nc2ccc(cc2)C(=O)NCC(C)(C)C1` [Example 3015], the EC50 (class symbol) is 0.1 to 100 nM. In the case of `CC1(C)CNC(=O)c2ccc(cc2)Nc2nc(nc(OCC(F)(F)F)n2)NCc2ccc(c(Cl)c2)OCCCN(C(=O)C(=O)Nc2ccccc2)C1` [Example 3009], the EC50 (class symbol) lay within 0.1 to 100 nM. Still for that read-out and setting: the value for `C=C1COc2ccc(cc2)CNc2nc(nc(OCC(F)(F)F)n2)Nc2ccc(cc2)C(=O)NCC(C)(C)CN(C(=O)C(=O)NCC2CC2)C1` [Example 1003] was 0.1 to 100 nM.
